Measured values taken from patent US11753446B2, “Beta-hairpin peptidomimetics” (POLYPHOR AG, priority 2014, dated 2023).
Where two headings read alike, the source gives them in different places. Where a SMILES comes first, the peptide text is derived from it. Bridges are numbered along the chain shown (N, C = ends). [ ]: non-standard residue; d: D form. Tle = CC(C)(C)[C@H](N)C(=O)O; dDab = NCC[C@@H](N)C(=O)O; NMeA = CN[C@@H](C)C(=O)O; Orn = NCCC[C@H](N)C(=O)O; Dab = NCC[C@H](N)C(=O)O; Dap = NC[C@H](N)C(=O)O

Assays:
[1] = tested on: human red blood cells (hRBC); assay: Hemolysis: hemolytic activity at 100 μg/mL, 1 h at 37° C.
Summary of the method: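 Peptides at 100 μg/mL incubated with washed 20% (v/v) human erythrocytes (~0.9×10^9 cells/mL) for 1 h at 37 °C with shaking. Released hemoglobin read at OD 540 nm in supernatant; 0% and 100% lysis from PBS/0.001% acetic acid and 2.5% Triton X-100.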

[2] = tested on: Klebsiella pneumoniae ATCC 13883; type: cell-based
Summary of the method: (§1)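 Peptide activity was tested by NCCLS broth microdilution with slight modifications. Bacteria were diluted in cation-adjusted Mueller-Hinton II broth to approximately 10^6 CFU/mL against a 0.5 McFarland standard. They were then exposed to two-fold serial peptide dilutions in broth containing 0.002% final polysorbate 80.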

[3] = tested on: Escherichia coli ATCC 25922; type: cell-based
Summary of the method: as §1

[4] = tested on: Acinetobacter baumannii DSM 30008; type: cell-based
Summary of the method: as §1

[5] = 100 μg/mL, 20% hRBC, 1 h at 37° C.
[6] = Mueller-Hinton II broth, 18-20 hours at 35° C.

SMILES	Hemolysis at 100 μg/mL ([1]; red cells of human, 1 h, 100)	Klebsiella pneumoniae ATCC 13883 MIC ([2]; ATCC 13883)	Escherichia coli ATCC 25922 MIC ([3]; ATCC 25922)	Acinetobacter baumannii DSM 30008 MIC ([4]; DSM 30008)	Hemolysis at 100 μg/mL [1, 5]	Klebsiella pneumoniae ATCC 13883 MIC [2, 6]	Escherichia coli ATCC 25922 MIC [3, 6]	Acinetobacter baumannii DSM 30008 MIC [4, 6]
CC(C)C[C@@H]1NC(=O)[C@H](CCCNC(=N)N)NC(=O)[C@H]2CCCN2C(=O)[C@H](C(C)C)NC(=O)[C@@H]2CSSC[C@H](NC1=O)C(=O)N[C@@H](Cc1ccc(O)cc1)C(=O)N[C@@H](CC(N)=O)C(=O)N[C@@H](CCCN)C(=O)N[C@H](CCN)C(=O)N[C@@H](CCN)C(=O)N[C@@H](Cc1c[nH]c3ccccc13)C(=O)N[C@@H](CCN)C(=O)N[C@@H](Cc1ccc(O)cc1)C(=O)N2 [Example 78, cyclo(-Leu-Cys-Tyr-Asn-Orn-^DDab-Dab-Trp-Dab-Tyr-Cys-Val-^DPro-Arg-)] (HELM PEPTIDE1{C.V.[dP].R.L.C.Y.N.[Orn].[NCC[C@@H](N[*:1])C(=O)[*:2]].[Dab].W.[Dab].Y}$PEPTIDE1,PEPTIDE1,1:R3-6:R3|PEPTIDE1,PEPTIDE1,1:R1-14:R2$$$V2.0)	1%	1 µg/mL	1.5 µg/mL	1.5 µg/mL				
CC(C)[C@@H]1NC(=O)[C@@H]2CCCN2C(=O)[C@H](C)N(C)C(=O)[C@H](CO)NC(=O)[C@@H]2CSSC[C@H](NC1=O)C(=O)N[C@@H](Cc1ccc(O)cc1)C(=O)N[C@@H](CCN)C(=O)N[C@@H](CN)C(=O)N[C@H](CCN)C(=O)N[C@@H](CCN)C(=O)N[C@@H](Cc1c[nH]c3ccccc13)C(=O)N[C@@H](CCN)C(=O)N[C@@H](C(C)(C)C)C(=O)N2 [Example 9, cyclo(-Val-Cys-Tyr-Dab-Dap-^DDab-Dab-Trp-Dab-tBuGly-Cys-Ser-NMeAla-Pro-] (cyclo(CS[NMeA]PVCY[Dab][Dap][dDab][Dab]W[Dab][Tle]); disulfide 1-6)	2%	0.5 µg/mL	0.5 µg/mL	1 µg/mL				
CC[C@@H]1NC(=O)[C@H](CCCNC(=N)N)NC(=O)[C@@H](CCN)NC(=O)[C@H](C(C)C)NC(=O)[C@@H]2CSSC[C@H](NC1=O)C(=O)N[C@@H](Cc1ccc(O)cc1)C(=O)N[C@@H](CC(N)=O)C(=O)N[C@@H](CCCN)C(=O)N[C@H](CCN)C(=O)N[C@@H](CCN)C(=O)N[C@@H](Cc1c[nH]c3ccccc13)C(=O)N[C@@H](CO)C(=O)N[C@@H](Cc1ccc(O)cc1)C(=O)N2 [Example 61, cyclo(-Abu-Cys-Tyr-Asn-Orn-^DDab-Dab-Trp-Ser-Tyr-Cys-Val-^DDab-Arg-)] (HELM PEPTIDE1{[Abu].C.Y.N.[Orn].[NCC[C@@H](N[*:1])C(=O)[*:2]].[Dab].W.S.Y.C.V.[NCC[C@@H](N[*:1])C(=O)[*:2]].R}$PEPTIDE1,PEPTIDE1,2:R3-11:R3|PEPTIDE1,PEPTIDE1,1:R1-14:R2$$$V2.0)	1%	2 µg/mL	2 µg/mL	1.5 µg/mL				
CC(C)C[C@@H]1NC(=O)[C@H](CCCNC(=N)N)NC(=O)[C@H]2CCCN2C(=O)[C@H](C(C)C)NC(=O)[C@@H]2CSSC[C@H](NC1=O)C(=O)N[C@@H](Cc1ccc(O)cc1)C(=O)N[C@@H](C)C(=O)N[C@@H](CCCN)C(=O)N[C@H](CCN)C(=O)N[C@@H](CCN)C(=O)N[C@@H](Cc1c[nH]c3ccccc13)C(=O)N[C@@H](C)C(=O)N[C@@H](C(C)C)C(=O)N2 [Example 3, cyclo(-Leu-Cys-Tyr-Ala-Orn-^DDab-Dab-Trp-Ala-Val-Cys-Val-^DPro-Arg-)] (HELM PEPTIDE1{A.[Orn].[NCC[C@@H](N[*:1])C(=O)[*:2]].[Dab].W.A.V.C.V.[dP].R.L.C.Y}$PEPTIDE1,PEPTIDE1,8:R3-13:R3|PEPTIDE1,PEPTIDE1,1:R1-14:R2$$$V2.0)	4%	1 µg/mL	2 µg/mL	1 µg/mL				
CC(C)[C@@H]1NC(=O)[C@H](CCCNC(=N)N)NC(=O)[C@@H](CCN)NC(=O)[C@H](C(C)C)NC(=O)[C@@H]2CSSC[C@H](NC1=O)C(=O)N[C@@H](Cc1ccc(O)cc1)C(=O)N[C@@H](CC(N)=O)C(=O)N[C@@H](CCCN)C(=O)N[C@H](CCN)C(=O)N[C@@H](CCN)C(=O)N[C@@H](Cc1c[nH]c3ccccc13)C(=O)N[C@@H](CO)C(=O)N[C@@H](Cc1ccc(O)cc1)C(=O)N2 [Example 57, cyclo(-Val-Cys-Tyr-Asn-Orn-^DDab-Dab-Trp-Ser-Tyr-Cys-Val-^DDab-Arg-)] (HELM PEPTIDE1{C.V.[NCC[C@@H](N[*:1])C(=O)[*:2]].R.V.C.Y.N.[Orn].[NCC[C@@H](N[*:1])C(=O)[*:2]].[Dab].W.S.Y}$PEPTIDE1,PEPTIDE1,1:R3-6:R3|PEPTIDE1,PEPTIDE1,1:R1-14:R2$$$V2.0)	1%	1.5 µg/mL	1 µg/mL	1.25 µg/mL				
CC(C)C[C@@H]1NC(=O)[C@H](CCCNC(=N)N)NC(=O)[C@@H](CCN)NC(=O)[C@H](C(C)C)NC(=O)[C@@H]2CSSC[C@H](NC1=O)C(=O)N[C@@H](Cc1ccc(O)cc1)C(=O)N[C@@H](CC(N)=O)C(=O)N[C@@H](CCCN)C(=O)N[C@H](CCN)C(=O)N[C@@H](CCN)C(=O)N[C@@H](Cc1c[nH]c3ccccc13)C(=O)N[C@@H](CC(N)=O)C(=O)N[C@@H](Cc1ccc(O)cc1)C(=O)N2 [Example 53, cyclo(-Leu-Cys-Tyr-Asn-Orn-^DDab-Dab-Trp-Asn-Tyr-Cys-Val-^DDab-Arg-)] (HELM PEPTIDE1{C.V.[NCC[C@@H](N[*:1])C(=O)[*:2]].R.L.C.Y.N.[Orn].[NCC[C@@H](N[*:1])C(=O)[*:2]].[Dab].W.N.Y}$PEPTIDE1,PEPTIDE1,1:R3-6:R3|PEPTIDE1,PEPTIDE1,1:R1-14:R2$$$V2.0)	1%	1 µg/mL	1 µg/mL	1.5 µg/mL				
CC(C)[C@@H]1NC(=O)[C@@H]2CCCN2C(=O)[C@@H](C)NC(=O)[C@H]([C@@H](C)O)NC(=O)[C@H](CO)NC(=O)[C@H](C(C)(C)C)NC(=O)[C@H](CCN)NC(=O)[C@H](Cc2c[nH]c3ccccc23)NC(=O)[C@H](CCN)NC(=O)[C@@H](CCN)NC(=O)[C@H](CCN)NC(=O)[C@H](CCN)NC(=O)[C@H](Cc2ccc(O)cc2)NC(=O)[C@H](CN)NC1=O [Example 46, cyclo(-Val-Dap-Tyr-Dab-Dab-^DDab-Dab-Trp-Dab-tBuGly-Ser-Thr-^DAla-Pro-)] (cyclo([Dab][Dab][dDab][Dab]W[Dab][Tle]ST[dA]PV[Dap]Y))	0%	0.5 µg/mL	1 µg/mL	1 µg/mL				
CC(C)C[C@@H]1NC(=O)[C@H](CCCNC(=N)N)NC(=O)[C@@H](CCN)NC(=O)[C@H](C(C)C)NC(=O)[C@@H]2CSSC[C@H](NC1=O)C(=O)N[C@@H](Cc1ccc(O)cc1)C(=O)N[C@@H](CN)C(=O)N[C@@H](CCCN)C(=O)N[C@H](CCN)C(=O)N[C@@H](CCN)C(=O)N[C@@H](Cc1c[nH]c3ccccc13)C(=O)N[C@@H](CO)C(=O)N[C@@H](Cc1ccc(O)cc1)C(=O)N2 [Example 72, cyclo(-Leu-Cys-Tyr-Dap-Orn-^DDab-Dab-Trp-Ser-Tyr-Cys-Val-^DDab-Arg-)] (cyclo(CV[dDab]RLCY[Dap][Orn][dDab][Dab]WSY); disulfide 1-6)	3%	0.5 µg/mL	0.75 µg/mL	0.625 µg/mL				
CC(C)C[C@@H]1NC(=O)[C@H](CCN)NC(=O)[C@@H](CCN)NC(=O)[C@H]([C@@H](C)O)NC(=O)[C@@H]2CSSC[C@H](NC1=O)C(=O)N[C@@H](Cc1ccc(O)cc1)C(=O)N[C@@H](CC(N)=O)C(=O)N[C@@H](CCCN)C(=O)N[C@H](CCN)C(=O)N[C@@H](CCN)C(=O)N[C@@H](Cc1c[nH]c3ccccc13)C(=O)N[C@@H](CO)C(=O)N[C@@H](C(C)(C)C)C(=O)N2 [Example 6, cyclo(-Leu-Cys-Tyr-Asn-Orn-^DDab-Dab-Trp-Ser-tBuGly-Cys-Thr-^DDab-Dab-)] (cyclo(CT[dDab][Dab]LCYN[Orn][dDab][Dab]WS[Tle]); disulfide 1-6)					5%	0.5 µg/mL	0.5 µg/mL	0.5 µg/mL
CC(C)[C@@H]1NC(=O)[C@@H]2CSSC[C@H](NC(=O)[C@H](Cc3ccc(O)cc3)NC(=O)[C@H]([C@@H](C)O)NC(=O)[C@H](Cc3c[nH]c4ccccc34)NC(=O)[C@H](CCN)NC(=O)[C@@H](CCN)NC(=O)[C@H](CCCN)NC(=O)[C@H]([C@@H](C)O)NC1=O)C(=O)N[C@@H](CCN)C(=O)N[C@H](CCN)C(=O)N[C@@H](CCCNC(=N)N)C(=O)N[C@@H](Cc1ccccc1)C(=O)N2 [Example 24, cyclo(-Phe-Cys-Val-Thr-Orn-^DDab-Dab-Trp-Thr-Tyr-Cys-Dab-^DDab-Arg-)] (HELM PEPTIDE1{C.[Dab].[NCC[C@@H](N[*:1])C(=O)[*:2]].R.F.C.V.T.[Orn].[NCC[C@@H](N[*:1])C(=O)[*:2]].[Dab].W.T.Y}$PEPTIDE1,PEPTIDE1,1:R3-6:R3|PEPTIDE1,PEPTIDE1,1:R1-14:R2$$$V2.0)					0%	2 µg/mL	1 µg/mL	2 µg/mL
